Common to all, as to format: functional, cell-based
Data set [1] concerns the target T1, ATP-dependent translocase ABCB1 (Homo sapiens, UniProt P08183). The experiment in a line: TP_TRANSPORTER: inhibition of Rhodamine 123 efflux (R123: 10 uM, C6-GalCer: 20 uM) in 2780AD cells.
The target in data set [2] is T1, ATP-dependent translocase ABCB1. The data set is described as follows: TP_TRANSPORTER: inhibition of Rhodamine 123 efflux (R123: 10 uM, C6-GlcCer: 20 uM) in 2780AD cells.
For data set [3] the target is unchanged. The experiment in a line: TP_TRANSPORTER: inhibition of Rhodamine 123 efflux (R123: 10 uM, C6-LacCer: 20 uM) in 2780AD cells.
The target is the same in data set [4]. The experiment in a line: TP_TRANSPORTER: inhibition of Rhodamine 123 efflux (R123: 10 uM, C6-SM: 10 uM) in 2780AD cells.

T1 sequence (P08183 whole entry): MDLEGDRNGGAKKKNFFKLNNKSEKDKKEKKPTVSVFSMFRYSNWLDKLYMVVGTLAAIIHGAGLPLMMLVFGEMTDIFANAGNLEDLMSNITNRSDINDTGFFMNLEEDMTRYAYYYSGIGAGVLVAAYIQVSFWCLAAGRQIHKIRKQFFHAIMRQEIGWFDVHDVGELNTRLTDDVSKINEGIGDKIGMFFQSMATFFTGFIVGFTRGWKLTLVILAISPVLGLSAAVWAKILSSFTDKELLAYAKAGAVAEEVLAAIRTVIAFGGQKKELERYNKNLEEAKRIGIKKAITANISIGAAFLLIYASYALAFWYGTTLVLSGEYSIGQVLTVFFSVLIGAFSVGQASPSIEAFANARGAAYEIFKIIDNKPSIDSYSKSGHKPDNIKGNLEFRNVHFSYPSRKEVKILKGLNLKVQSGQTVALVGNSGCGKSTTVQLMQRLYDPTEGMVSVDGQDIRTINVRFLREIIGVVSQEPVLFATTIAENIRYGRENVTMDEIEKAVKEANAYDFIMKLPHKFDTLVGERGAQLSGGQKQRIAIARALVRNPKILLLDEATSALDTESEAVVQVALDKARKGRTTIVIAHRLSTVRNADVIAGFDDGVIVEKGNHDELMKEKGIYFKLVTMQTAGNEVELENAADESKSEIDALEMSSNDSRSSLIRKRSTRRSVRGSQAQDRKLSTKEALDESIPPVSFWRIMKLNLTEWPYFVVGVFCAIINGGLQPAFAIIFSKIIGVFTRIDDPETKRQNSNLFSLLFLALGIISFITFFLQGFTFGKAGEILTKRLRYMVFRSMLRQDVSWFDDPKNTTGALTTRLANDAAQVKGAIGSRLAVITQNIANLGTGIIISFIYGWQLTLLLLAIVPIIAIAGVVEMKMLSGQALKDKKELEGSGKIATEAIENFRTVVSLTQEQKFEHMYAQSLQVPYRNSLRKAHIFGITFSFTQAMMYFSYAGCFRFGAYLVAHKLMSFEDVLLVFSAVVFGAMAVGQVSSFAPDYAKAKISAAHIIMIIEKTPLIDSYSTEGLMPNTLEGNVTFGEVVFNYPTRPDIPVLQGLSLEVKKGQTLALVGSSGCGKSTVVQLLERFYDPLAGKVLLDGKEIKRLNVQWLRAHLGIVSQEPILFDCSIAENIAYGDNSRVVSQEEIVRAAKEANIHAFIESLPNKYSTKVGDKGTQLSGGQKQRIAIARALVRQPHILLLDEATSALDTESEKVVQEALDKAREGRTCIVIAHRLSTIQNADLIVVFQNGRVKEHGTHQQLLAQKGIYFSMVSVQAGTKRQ

Take `CCCCCCCCCCCCC/C=C/[C@@H](O)[C@H](CO[C@@H]1O[C@H](CC)[C@H](O)[C@H](O)[C@H]1O)NC(=O)CCCCCC`: the Activity entry in data set [1] was “inhibitor [+]”.

Turning to `CCCCCCCCCCCCC/C=C/[C@@H](O)[C@H](CO[C@@H]1O[C@H](CC)[C@@H](O)[C@H](O)[C@H]1O)NC(=O)CCCCCC`, in data set [2], the Activity entry is “inhibitor [+]”.

Consider `CCCCCCCCCCCCC/C=C/[C@@H](O)[C@H](CO[C@@H]1O[C@H](CC)[C@@H](O[C@@H]2O[C@H](CO)[C@@H](O)[C@H](O)[C@H]2O)[C@H](O)[C@H]1O)NC(=O)CCCCCC`, for which, in data set [3], the Activity entry was “inhibitor [+]”.

`CCCCCCCCCCCCCCCC(O)C(CO)NC(=O)CCCCCC` (centres undefined): the Activity entry in data set [4] was “inhibitor [+]”.

(Values after ChEMBL document CHEMBL2074108, “Inhibition of P-glycoprotein activity and chemosensitization of multidrug-resistant ovarian carcinoma 2780AD cells by hexanoylglucosylceramide” (Biochem Biophys Res Commun, 1999).)
